Measured values: US9745305B2, “Modulators of methyl modifying enzymes, compositions and uses thereof” (Constellation Pharmaceuticals, Inc., priority 2013, dated 2017)

What was measured:
[1] = molecular target: EZH2 (Homo sapiens, UniProt Q15910); assay: EZH2 Assay (3H SAM methyl transfer, rPRC2, FlashPlate); assay type: biochemical; conditions: rPRC2, biotinylated oligonucleosomes, 0.2 μM 3H SAM, 2 nM EZH2
Summary of the method: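 rPRC2 (2 nM EZH2) was preincubated 20 min with compound (80 to 0.16 μM, 10 points), then reacted 60 min with 0.2 μM ³H-SAM, 0.2 μM biotinylated oligonucleosomes and 3.6 μM H3K27me3 peptide at pH 8.5. Methylated product was captured on SAV FlashPlates and counted, and IC50 came from a 4-parameter fit.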

[2] = tested on: H3K27me3 mark in Hela cells expressing wild type EZH2; assay: H3K27me3 MSD Hela Assay; assay type: cell-based; conditions: Homo sapiens, HeLa, 96 h, read-out: H3K27me3_MSD_HeLa (EC50)
Method: H3K27me3 MSD Hela Assay. Trypsinized HeLa cells were counted and diluted in 10% DMEM (Life Technologies, Cat. #10569) to 5000 cells/75 μL. Seventy-five μL of cells were place in each well of a 96-well flat-bottomed plate and incubated at 37° C. for 4 hours. Twenty-five μL of test compound (at various concentrations) was added to the cells and incubation continued at 37° C. for 96 hours. Media was then removed and the cells rinsed once with ice cold PBS. Forty μL of ice-cold MSD Buffer AT (10 mM HEPES, pH 7.9, 5 mM MgCl2, 0.25M sucrose, Benzonase (1:10000), 1% Triton X-100 supplemented with fresh 1× Protease Inhibitor cocktail and 1 mM 4-(2-Aminoethyl)benzenesulfonyl fluoride hydrochloride (AEBSF)) was added to each well and the plates placed on ice for 30 minutes. Ten μL of 5M NaCl was then added to each well and incubation on ice continued for another 15 minutes. The material in each well was suspended pipetting up and down and then transferred to a new 96 well plate. The emptied wells were rinsed with 150 uL ice-cold 20 mM Tris pH 7.5, 1 mM EDTA, 1 mM EGTA, supplemented with fresh 1× Protease Inhibitor cocktail and 1 mM AEBSF (“NO salt NO detergent buffer) and transferred to the respective wells in the new plate. Three hundred μL of NO Salt NO detergent buffer was then added to each well of lysates and the plates frozen at −80° C.
On the same day, an appropriate number of MSD standard bind 96-well plates were coated with 30 μL/well of total H3 capture antibody (Millipore, Cat # MAB3422) at 1 μg/mL concentration in PBS. The antibody solution was evenly distributed first by tapping gently on the sides of the plates and then by shaking the plates for a few minutes at 1000 rpm. Antibody coated plates were stored at 4° C. overnight.
The next day the lysates are thawed to RT. The antibody coated MSD plates are washed 3× with TBS-T (Tris-buffered saline (Fisher Scientific, Cat #BP2471-1)+0.2% Tween-20). One-hundred fifty μL of 5% Blocker A in TBS-T is added to each well. The wells are covered and shaken on a shaker at RT for one hour. The Blocker A step is repeated a second time. After removing the blocker, 25 μL of cell lysate is transferred into each antibody coated well. The plates are shaken for 2 hours at RT, the lysate removed and the plates again washed with Blocker A in TBS-T. Twenty-five μL of appropriate freshly prepared antibody mix (including both primary and secondary antibodies) is added to each well and the plates shaken for 1 hour at RT.
Both H3 antibodies were obtained from Cell Signalling (Cat #s 4499 and 9733). The goat anti-rabbit antibody was obtained from Meso-Scale Discovery (Cat #R32AB-1).
The antibody mix was then removed and the wells washed with Blocker A. One hundred-fifty μL of freshly prepared 1×MSD Read Buffer (Meso-Scale Discovery; Cat #R927C-2) was then added to each well and the plates read on a MSD Sector 2400 Plate Reader.
Data was analyzed using Assay Assistant (Constellation Pharmaceuticals In-house product) and Activity Base (IDBS Ltd, Surrey, UK) template. Data files were imported to Assay Assistant and assay conditions were specified. A unique Analysis ID was created and the data files exported to Activity Base. An analysis template was created on Activity Base to measure dose-dependent inhibition of H3K27me3 mark and cell viability respectively. Readout of DMSO wells were used to normalize the data. Resulting curves were fitted using Activity base software Model 205 (IDBS Ltd, Surrey, UK). The data was checked for quality, validated and integrated in excel format using SARview (IDBS Ltd, Surrey, UK).

Sequence of EZH2 (Q15910 whole entry): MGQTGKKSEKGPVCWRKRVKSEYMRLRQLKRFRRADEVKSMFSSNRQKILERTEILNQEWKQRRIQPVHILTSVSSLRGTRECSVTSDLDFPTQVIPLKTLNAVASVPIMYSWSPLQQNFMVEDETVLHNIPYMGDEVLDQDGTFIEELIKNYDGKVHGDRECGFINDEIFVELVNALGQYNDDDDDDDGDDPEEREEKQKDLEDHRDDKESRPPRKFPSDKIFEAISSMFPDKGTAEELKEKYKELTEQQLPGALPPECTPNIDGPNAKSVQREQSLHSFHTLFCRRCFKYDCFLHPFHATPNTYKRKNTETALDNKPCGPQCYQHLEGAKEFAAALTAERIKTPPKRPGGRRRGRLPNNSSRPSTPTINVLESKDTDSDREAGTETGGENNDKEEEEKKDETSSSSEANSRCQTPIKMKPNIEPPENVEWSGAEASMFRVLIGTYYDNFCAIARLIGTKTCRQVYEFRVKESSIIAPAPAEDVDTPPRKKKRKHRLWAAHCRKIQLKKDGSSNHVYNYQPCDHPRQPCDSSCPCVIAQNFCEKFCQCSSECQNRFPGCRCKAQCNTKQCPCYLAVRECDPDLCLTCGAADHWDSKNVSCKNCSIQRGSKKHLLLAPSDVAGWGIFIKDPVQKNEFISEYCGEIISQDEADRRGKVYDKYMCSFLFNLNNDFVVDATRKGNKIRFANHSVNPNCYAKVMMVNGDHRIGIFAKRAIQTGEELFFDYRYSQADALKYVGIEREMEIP
Sequence of EZH2 (O75530 whole entry partner): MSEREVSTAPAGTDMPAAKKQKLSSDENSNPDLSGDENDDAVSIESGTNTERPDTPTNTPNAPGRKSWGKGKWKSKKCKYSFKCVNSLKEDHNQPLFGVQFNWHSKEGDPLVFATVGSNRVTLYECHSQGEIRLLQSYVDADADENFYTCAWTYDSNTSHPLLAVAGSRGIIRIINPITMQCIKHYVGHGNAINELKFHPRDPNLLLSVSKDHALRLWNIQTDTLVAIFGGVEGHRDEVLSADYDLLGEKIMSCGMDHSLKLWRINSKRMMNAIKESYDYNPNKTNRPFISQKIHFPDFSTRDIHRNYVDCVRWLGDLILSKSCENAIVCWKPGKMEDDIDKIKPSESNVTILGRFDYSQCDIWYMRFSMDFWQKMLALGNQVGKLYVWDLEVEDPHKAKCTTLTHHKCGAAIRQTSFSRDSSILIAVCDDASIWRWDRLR
Sequence of EZH2 (Q15022 whole entry partner): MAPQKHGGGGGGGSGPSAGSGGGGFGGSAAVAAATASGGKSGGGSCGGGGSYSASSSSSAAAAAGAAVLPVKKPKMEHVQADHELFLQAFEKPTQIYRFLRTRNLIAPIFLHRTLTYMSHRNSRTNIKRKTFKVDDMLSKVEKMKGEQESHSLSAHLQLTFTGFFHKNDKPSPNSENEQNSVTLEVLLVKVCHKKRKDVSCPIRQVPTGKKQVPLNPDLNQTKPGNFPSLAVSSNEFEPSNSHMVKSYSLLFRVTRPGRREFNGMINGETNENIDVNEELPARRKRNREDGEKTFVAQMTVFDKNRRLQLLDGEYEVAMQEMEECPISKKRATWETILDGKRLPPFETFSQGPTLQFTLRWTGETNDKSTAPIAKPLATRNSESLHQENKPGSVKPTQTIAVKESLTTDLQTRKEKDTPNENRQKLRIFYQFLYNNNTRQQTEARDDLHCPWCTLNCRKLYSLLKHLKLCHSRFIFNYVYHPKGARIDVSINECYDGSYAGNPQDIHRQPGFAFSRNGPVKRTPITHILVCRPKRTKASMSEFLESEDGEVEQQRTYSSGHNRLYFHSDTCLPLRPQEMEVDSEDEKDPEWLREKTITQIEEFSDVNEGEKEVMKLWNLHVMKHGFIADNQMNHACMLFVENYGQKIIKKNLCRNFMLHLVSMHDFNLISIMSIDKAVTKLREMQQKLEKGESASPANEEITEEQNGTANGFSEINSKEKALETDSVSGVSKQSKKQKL

Row | IC50 [1] | EC50 [2] | SMILES
1 | < 100 nM | < 400 nM | COc1cc(C)[nH]c(=O)c1CNC(=O)c1c(C)c(C(C)c2ccccc2)n2ncccc12 (racemic) [Compound 101, (±)-N-((4-methoxy-6-methyl-2-oxo-1,2-dihydropyridin-3-yl)methyl)-6-methyl-7-(1-phenylethyl)pyrrolo[1,2-b]pyridazine-5-carboxamide]
2 | < 100 nM | < 400 nM | COc1cc(C)[nH]c(=O)c1CNC(=O)c1c(C)c(C(C)C2CCOCC2)n2ncccc12 (racemic) [Compound 116, (±)-N-((4-methoxy-6-methyl-2-oxo-1,2-dihydropyridin-3-yl)methyl)-6-methyl-7-(1-(tetrahydro-2H-pyran-4-yl)ethyl)pyrrolo[1,2-b]pyridazine-5-carboxamide]
3 | < 100 nM | < 400 nM | COc1cc(C)[nH]c(=O)c1CNC(=O)c1c(C)c(C(C)c2ccccc2)n2ncccc12 (single isomer, unassigned) [Compound 105, (R or S)-N-((4-methoxy-6-methyl-2-oxo-1,2-dihydropyridin-3-yl)methyl)-6-methyl-7-(1-phenylethyl)pyrrolo[1,2-b]pyridazine-5-carboxamide]
